Patent US12357711B2, “PSMA binding dual mode radiotracer and therapeutic” (Technische Universität München, priority 2019, dated 2025)

How the values were obtained:
human serum albumin = target: T1, human serum albumin (Homo sapiens, UniProt P02768); assay: HSA binding on Chiralpak HSA column; format: in vitro ADME; conditions: Chiralpak HSA column (50 × 3 mm, 5 μm)
T1 construct: purchased H13H-2433
Procedure: The mobile phase (A: NH4OAc, 50 mM in water, pH 7 and B: isopropanol) was freshly prepared for each experiment and only used for one day. The column was kept at room temperature and each run was stopped after detection of the signal to reduce the acquisition time. All substances were dissolved in a 0.5 mg/ml concentration in 50% 2-propanol and 50% 50 mM pH 6.9 ammonium acetate buffer. […] All nine reference substances were injected consecutively to establish a non-linear regression with Origin Pro 2016G.

[1] = tested on: LNCaP tumor-bearing SCID mice; assay: Biodistribution at 1 h p.i.; format: in vivo; conditions: for Biodistribution tumor: LNCaP tumor
Procedure: FIG. 10: Biodistribution (in % ID/g) of ^18E-labeled rhPSMA tracers at 1 h p.i in LNCaP tumor-bearing SCID mice. Data are expressed as mean±SD (n=4 for rhPSMA7.1, n=5 for 7.2, n=4 for 7.3, n=5 for 7.4 and n=3 for 7-rac).

T1 sequence (P02768 25-609): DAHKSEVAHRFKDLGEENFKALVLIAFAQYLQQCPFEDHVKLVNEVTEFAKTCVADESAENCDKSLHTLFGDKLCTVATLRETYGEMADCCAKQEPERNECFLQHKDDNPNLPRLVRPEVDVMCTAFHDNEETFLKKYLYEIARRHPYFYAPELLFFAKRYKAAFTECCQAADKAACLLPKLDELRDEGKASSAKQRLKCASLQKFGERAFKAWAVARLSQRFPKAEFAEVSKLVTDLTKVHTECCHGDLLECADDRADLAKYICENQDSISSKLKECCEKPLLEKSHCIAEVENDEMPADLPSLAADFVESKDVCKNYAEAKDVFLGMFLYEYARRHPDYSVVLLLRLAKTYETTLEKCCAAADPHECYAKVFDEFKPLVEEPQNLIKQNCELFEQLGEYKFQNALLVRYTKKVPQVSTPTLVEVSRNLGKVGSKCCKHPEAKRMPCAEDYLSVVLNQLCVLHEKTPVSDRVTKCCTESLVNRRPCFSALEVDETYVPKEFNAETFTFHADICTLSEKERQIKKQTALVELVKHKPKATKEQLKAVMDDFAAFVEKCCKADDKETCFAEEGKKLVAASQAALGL

Compound | HSA Binding (human serum albumin) | Biodistribution adrenals [1] | Biodistribution blood [1] | Biodistribution bone [1] | Biodistribution heart [1] | Biodistribution intestine [1] | Biodistribution kidneys [1] | Biodistribution liver [1] | Biodistribution lung [1] | Biodistribution muscle [1] | Biodistribution pancreas [1] | Biodistribution spleen [1] | Biodistribution stomach [1] | Biodistribution tumor [1]
CC(C)(C)[Si](F)(c1ccc(C(=O)NC[C@@H](NC(=O)CC[C@@H](C(=O)O)N2CCN(CC(=O)[O-])CCN(CC(=O)[O-])CCN(CC(=O)[O-])CC2)C(=O)N[C@H](CCCCNC(=O)CCC(=O)NCCC[C@@H](NC(=O)CC[C@H](NC(=O)N[C@@H](CCC(=O)O)C(=O)O)C(=O)O)C(=O)O)C(=O)O)cc1)C(C)(C)C.[Ga+3] [rhPSMA7.3, [^19F][^natGa]D-Dap-S-DOTAGA-rhPSMA7] | 96.9% | 2.2 ± 0.83 % ID/g | 0.96 ± 0.24 % ID/g | 0.38 ± 0.32 % ID/g | 0.87 ± 0.17 % ID/g | 0.35 ± 0.07 % ID/g | 292 ± 45.1 % ID/g | 0.69 ± 0.13 % ID/g | 2.2 ± 0.35 % ID/g | 0.33 ± 0.15 % ID/g | 0.63 ± 0.44 % ID/g | 16.6 ± 2.6 % ID/g | 0.44 ± 0.23 % ID/g | 18.3 ± 7.2 % ID/g
[^19F][^natGa]D/L-Dap-R/S-DOTAGA-rhPSMA7 [rhPSMA7-rac] | 96.7% | 3.0 ± 0.45 % ID/g | 1.1 ± 0.03 % ID/g | 0.91 ± 0.11 % ID/g | 0.69 ± 0.07 % ID/g | 0.60 ± 0.27 % ID/g | 71.3 ± 13.3 % ID/g | 0.67 ± 0.07 % ID/g | 1.4 ± 0.17 % ID/g | 0.36 ± 0.06 % ID/g | 0.60 ± 0.10 % ID/g | 11.1 ± 2.3 % ID/g | 0.49 ± 0.07 % ID/g | 10.4 ± 0.67 % ID/g
